From patent US20220387414A1, “TREATING LIVER DISORDERS” (Terns Pharmaceuticals Inc., priority 2019, published 2022)
“And” between values parts separate entries of the source, which are not always exact repeats. Identical values can stand only once.

How the values were obtained:
[1] = longer term studies; cited from earlier work
[2] = In vitro metabolic stability in cryopreserved hepatocytes (rat); format: in vitro ADME; conditions: Sprague-Dawley Rat hepatocytes, 0.5×10^6 cells/mL, 37° C.
Description: (§1) 283, no. 1, pp. 46-58 (1997).

[3] = PK profile after oral dosing in monkeys; format: in vivo; conditions: cynomolgus monkeys, oral 1 mg/kg for 7 consecutive days
Procedure: (§2) The pharmacodynamics were measured as a function of 7-alpha-hydroxy-4-cholesten-3-one (7α-C4) reduction (FIG. 4), as quantified by LC-MS/MS. Pharmacokinetics data is presented in Table 3, and were determined by non-compartmental analysis.

[4] = tested on: FXR-regulated, inflammatory and fibrosis gene expression in the liver; assay: Liver gene expression in NASH mouse model (RT-qPCR, RNA-seq); format: in vivo, C57/BL6J mice; conditions: 10, 30, or 100 mg/kg daily oral, 28 days
[5] = Pharmacokinetics assay, IV and oral, monkey; format: in vivo, cynomolgus monkeys; conditions: plasma; Cynomolgus Monkey, oral 5 mg/kg, IV 0.3 mg/kg
Description: Results are shown in FIG. 1A (IV administration) and FIG. 1B (oral administration), and in Table 2. […] Smaller Vdss in monkeys is correlated with higher plasma protein binding.

[6] = tested on: 7-alpha-hydroxy-4-cholesten-3-one (7α-C4); assay: Clinical 7-day study, serum 7α-C4 suppression; format: in vivo, human; conditions: healthy subjects; for maximum suppression of serum 7α-C4 levels (reduction): Day 7, six hours after dosing
Procedure: (§3) Second Study. […] 10-14, 2019.
Serum levels of 7-alpha-hydroxy-4-cholesten-3-one (7α-C4) in the subjects were periodically measured. FIGS. 16A and 16B show changes of mean serum levels of 7α-C4 from the pre-dose baseline in different dosing groups on Day 1 and Day 7, respectively. […] On Day 7, maximum suppression of serum 7α-C4 levels was observed six hours after dosing corresponding to a reduction of 74%, 82%, and 91% in the 25, 75, and 150 mg dosing groups, respectively.

[7] = Clinical 7-day study, safety and pruritus; format: in vivo, human; conditions: healthy volunteers
Procedure: as §3
Safety was assessed during dosing and for 10 (±1) days after dosing.

[8] = tested on: differentially expressed genes and pathways in liver; assay: RNAseq of liver after single oral dose; conditions: mice liver, 6 hours; for number of differentially expressed genes modulated vs vehicle: fold change≥1.5, q-value<0.05; for number of global pathways enriched: p<0.05
Procedure: For RNAseq analysis, mRNA was extracted from total liver and sequenced using standard Illumina library preparation and sequencing protocols. Differentially expressed genes (DEG) were determined using RSEM and edgeR software packages and analyzed using Advaita Bio's iPathwayGuide software.

[9] = tested on: FXR-regulated gene expression in liver and ileum; assay: RT-qPCR of FXR-regulated gene expression in liver and ileum after single oral dose; format: in vivo; conditions: mice, single oral dose 10 mg/kg, 6 hours after dose
Description: For RT-qPCR, gene-specific primers were used to quantitate FXR-regulated gene expression in liver and ileum using the 2-ddCT method. Results are shown in FIG. 6 (data presented as mean±SEM; **** indicates p<0.0001 and * indicates p<0.05 versus vehicle, with statistics determined by one-way ANOVA followed by Tukey).

[10] = In vitro metabolic stability in cryopreserved hepatocytes (human); format: in vitro ADME; conditions: 0.5×10^6 cells/mL, 37° C.
Description: as §1

[11] = In vitro metabolic stability in cryopreserved hepatocytes (monkey); format: in vitro ADME; conditions: Cynomolgus Monkey hepatocytes, 0.5×10^6 cells/mL, 37° C.
Description: as §1

[12] = tested on: 7-alpha-hydroxy-4-cholesten-3-one (7α-C4); assay: PD profile (7α-C4 reduction) after oral dosing in monkeys; format: in vivo; conditions: cynomolgus monkeys, oral 1 mg/kg for 7 consecutive days
Procedure: as §2

[13] = tested on: FGF-19; assay: Clinical 7-day study, serum FGF-19; format: in vivo, human; conditions: healthy subjects, four hours after dosing on Day 7; dosing groups not assigned in the text
Description: (§4) Serum levels of Compound I in the subjects were periodically measured.
Serum levels of FGF-19 in the subjects were periodically measured. FIGS. 17A and 17B show changes of mean serum levels of FGF-19 from the pre-dose baseline in different dosing groups on Day 1 and Day 7, respectively.

[14] = In vitro metabolic stability in cryopreserved hepatocytes (mouse); format: in vitro ADME; conditions: 0.5×10^6 cells/mL, 37° C.
Description: as §1

[15] = tested on: NASH induced by a high fat diet in combination with CCl4; assay: Mouse model of NASH (high fat diet in combination with CCl4); format: in vivo, C57/BL6J mice; conditions: 28 days
Procedure: Hematoxylin & Eosin (H&E) and Sirius Red histological staining of liver tissue was used to quantitate NAFLD activity score (NAS), steatosis, ballooning, inflammation and fibrosis.
NAS is calculated based upon liver steatosis, inflammation, and ballooning and was determined by analysis of liver tissue histology using H&E stain. Specifically, inflammation score was calculated based upon H&E staining: Score 0, none; 1, <2 foci per 200X field; 2, 2-4 foci per 200X field; 3, >4 foci per 200X field. […] Hepatocellular ballooning is a form of liver cell injury associated with cell swelling and is also measured by H&E stained liver sections. The ballooning score is calculated as follows: 0-no hepatocyte ballooning; 1-few ballooning hepatocytes; 2-many hepatocytes with prominent ballooning.
Liver fibrosis was quantified by histological analysis of the percentage of Sirius Red-positive liver sections.

[16] = In vitro metabolic stability in cryopreserved hepatocytes (dog); format: in vitro ADME; conditions: Beagle Dog hepatocytes, 0.5×10^6 cells/mL, 37° C.
Description: as §1

[17] = Clinical 7-day study, serum exposure of Compound I; format: in vivo, human; conditions: healthy subjects, each 24-hour dosing period, all dosed groups
Description: as §3, §4

[18] = Clinical 7-day study, serum LDL; format: in vivo, human; conditions: healthy subjects, 25, 75, or 150 mg QD for 7 days
Description: as §4
Serum levels of low-density lipoprotein (LDL) in the subjects were periodically measured.

[19] = Tissue distribution of radiolabeled (14C) Compound I after oral dose; format: in vivo; conditions: Long-Evans rats, oral 5 mg/kg (100 μCi/kg), up to 168 hours
[20] = 10, 30, and 100 mg/kg daily oral
[21] = 10, 30, or 100 mg/kg daily oral

O=C(O)c1cc(F)c2nc(N3[C@@H]4CC[C@H]3C[C@@H](OCc3c(-c5ccccc5OC(F)(F)F)noc3C3CC3)C4)sc2c1 [tropifexor]
pruritus [1]: known to result in pruritus

Cn1cc(C(=O)O)c2ccc(N3CCC(OCc4c(-c5c(Cl)cccc5Cl)noc4C4CC4)CC3)cc21 [Compound I, 6-{4-[5-cyclopropyl-3-(2,6-dichloro-phenyl)-isoxazol-4-ylmethoxy]-piperidin-1-yl}-1-methyl-1H-indole-3-carboxylic acid]
half-life at 1 µM [2]: 2.18 ± 0.0685 h
plasma exposure on day 1 and day 7 [3]: comparable
collagen, type 1, alpha 1 expression in the liver compared to control NASH mice [4]: decreased
bioavailability [5]: 18%
maximum suppression of serum 7α-C4 levels (reduction) ([6]; 25 mg QD): 74%
maximum suppression of serum 7α-C4 levels (reduction) ([6]; 75 mg QD): 82%
maximum suppression of serum 7α-C4 levels (reduction) ([6]; 150 mg QD): 91%
suppression of serum 7α-C4 levels after a single dose ([6]; Day 1, all dosed groups (25, 75, 150 mg)): partial suppression
reports of pruritus ([7]; all doses (25, 75, 150 mg QD for 7 days)): no reports of pruritus
safety and tolerability ([7]; all doses, during dosing and for 10 (±1) days after): safe and well tolerated
number of differentially expressed genes modulated vs vehicle ([8]; single oral 10 mg/kg): 500 genes
number of global pathways enriched ([8]; single oral 10 mg/kg): 32 pathways
induction of FXR-specific genes (liver SHP1, liver OSTb, ileum SHP1, ileum FGF15) [9]: preferentially induces FXR-specific genes in the liver
half-life at 1 µM [10]: 1.4 ± 0.108 h
half-life at 1 µM [11]: 1.06 ± 0.013 h
suppression of the pharmacodynamics biomarker 7α-C4 [12]: sustained suppression
maximum increases from baseline in serum FGF 19 levels [13]: 718% and 486% and 454%
half-life at 1 µM [14]: 0.727 ± 0.0472 h
ballooning score compared to untreated NASH mice [15, 20]: significantly reduced
inflammation score compared to untreated NASH mice [15, 20]: significantly reduced
steatosis score compared to untreated NASH mice [15, 20]: significantly reduced
NAFLD Activity Score (NAS) compared to untreated NASH mice [15, 21]: significantly lower
liver fibrosis (Sirius Red-positive area) compared to untreated NASH control [15, 21]: statistically significant reduced fibrosis
half-life at 1 µM [16]: 2.1 ± 0.258 h
mean serum levels of Compound I versus its EC50 [17]: generally did not exceed the EC50
serum LDL changes above baseline [18]: minimal
tissues with the most radioactive material [19]: Liver, small intestine, and cecum

CC[C@H]1[C@@H](O)[C@@H]2[C@H](CC[C@]3(C)[C@@H]([C@H](C)CCC(=O)O)CC[C@@H]23)[C@@]2(C)CC[C@@H](O)C[C@@H]12 [OCA, obeticholic acid, reference compound]
number of differentially expressed genes modulated vs vehicle ([8]; single oral 30 mg/kg): 44 genes
number of global pathways enriched ([8]; single oral 30 mg/kg): 6 pathways
pruritus [1]: known to result in pruritus

O=C(O)c1ccnc(N2CC(O)(c3ccc(OCc4c(-c5c(Cl)cccc5Cl)noc4C4CC4)cc3Cl)C2)c1 [cilofexor]
pruritus [1]: known to result in pruritus
